The values below come from paper PMC4995097, “Talin-KANK1 interaction controls the recruitment of cortical microtubule stabilizing complexes to focal adhesions” (eLife, 2016).

One assay addresses T1, R7-R8 S1641E (Mus musculus, UniProt P26039, S1641E).
T1 construct: His-tag (cleaved yes); made in house; host or cells: E. coli BL21(DE3)
The assay can be described thus: Fluorescence polarization binding to talin1 R7-R8 S1641E. Further details: species or system murine. As to conditions: 0.5 μM BODIPY TMR-labeled peptide, PBS, room temperature, ± SE, triplicate, panel G, read-out: Dissociation constant (Kd), S1641E. The source says:
The cDNAs encoding murine talin1 residues 1357–1653 (R7-R8), 1357–1653 Δ1454–1586 (R7) and 1461–1580 (R8) were synthesized by PCR using a mouse talin1 cDNA as template and cloned into the expression vector pet151-TOPO (Invitrogen) ([Gingras et al., 2010]). Talin mutants were synthesized by GeneArt. Talin polypeptides were expressed in E. coli BL21(DE3) cultured either in LB for unlabeled protein, or in M9 minimal medium for the preparation of isotopically labeled samples for NMR. Recombinant His-tagged talin polypeptides were purified by nickel-affinity chromatography following standard procedures. The His-tag was removed by cleavage with AcTEV protease (Invitrogen), and the proteins were further purified by anion-exchange. Protein concentrations were determined using their respective extinction coefficient at 280 nm.
KANK peptides with a C-terminal cysteine residue were synthesized by Biomatik (USA):
Fluorescence Polarization was carried out on KANK peptides with a carboxy terminal cysteine. […]
The Fluorescence Polarization assay was carried out on a black 96well plate (Nunc). […] Fluorescence Polarization measurements were recorded on a BMGLabTech CLARIOstar plate reader at room temperature and analyzed using GraphPad Prism (version 6.07). Kd values were calculated with a nonlinear curve fitting using a one site total and non-specific binding model.
For orientation: Polarisation of emitted light reports the rotation of a fluorescent probe.

The target of the next assay is T2, Talin1 R7-R8 (1357–1659) (Mus musculus, UniProt P26039).
T2 construct: peptides to Talin1 R7-R8 (1357–1659) was measured using a Fluorescence Polarization assay; His-tag (cleaved yes); made in house; host or cells: E. coli BL21(DE3)
T2 sequence (P26039 1357-1659): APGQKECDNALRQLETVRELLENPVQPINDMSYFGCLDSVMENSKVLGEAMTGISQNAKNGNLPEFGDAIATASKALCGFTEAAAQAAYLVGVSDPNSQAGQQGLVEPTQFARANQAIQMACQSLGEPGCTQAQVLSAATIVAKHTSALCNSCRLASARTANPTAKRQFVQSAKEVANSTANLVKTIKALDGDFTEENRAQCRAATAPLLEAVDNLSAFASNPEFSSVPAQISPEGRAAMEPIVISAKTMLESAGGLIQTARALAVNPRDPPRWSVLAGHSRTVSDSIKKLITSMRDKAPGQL
As to the kind of experiment: Fluorescence polarization binding of BODIPY-labeled KANK peptides to talin1 R7-R8. As to conditions: Fluorescence polarization; 0.5 μM BODIPY TMR-labeled peptide, increasing talin R7-R8, PBS, room temperature; one site total and non-specific binding; ± SE, triplicate; panel F; read-out: Dissociation constant (Kd), Fig. 2F. Further details: species or system murine.

The next assay has as its system GFP-talin1. As to the kind of experiment: Streptavidin pull down of BioGFP-KANK1 constructs with GFP-talin1, Western blot. Type of assay: binding, mouse. As to conditions: 4A mutation introduced into the construct; HEK293T cells, Figure 3A. The source says: BioGFP-tagged KANK1 mutants were constructed using PCR and pBioGFP-C1 vector as previously described ([van der Vaart et al., 2013]). Rescue constructs for BioGFP-tagged KANK1 were either based on the version previously described ([van der Vaart et al., 2013]) or a version obtained by PCR-based mutagenesis of the sequence […] to […]. mCherry-tagged paxillin construct was made by replacing GFP from pQC-GPXN ([Bouchet et al., 2011]) by mCherry (pmCherry-C1, Clontech). TagRFP-tagged paxillin construct was made by PCR-based amplification and cloning in pTagRFP-T-C1 (kind gift from Y. Mimori-Kiyosue, Riken Institute, Japan). HA-tagged KANK1 construct was generated by cloning KANK1 coding sequence into pMT2-SM-HA (gift of C. Hoogenraad, Utrecht University, The Netherlands). pLVX-IRES-Neo (pLVIN) vectors was constructed by cloning the IRES-neomycin resistance cassette from the pQCXIN plasmid (Clontech) into the pLVX-IRES-Puro plasmid (Clontech). […]
Streptavidin-based pull down assays of biotinylated proteins expressed using pBioGFP-C1 constructs transfected in HEK293T cells was performed and analyzed as previously described ([van der Vaart et al., 2013]). […] For RP-nanoLC-MS/MS, samples were resuspended in 10% formic acid (FA) / 5% DMSO and was analyzed using a Proxeon Easy-nLC100 (Thermo Scientific) connected to an Orbitrap Q-Exactive mass spectrometer. […]
In general terms: In western blotting, separated proteins are transferred to a membrane and probed.

Assay [1] deals with focal adhesions in HeLa cells. The assay can be described thus: TIRFM localization of GFP-tagged KANK1 constructs relative to focal adhesions. Particulars: live HeLa cells with mCherry- or TagRFP-paxillin. Type of assay: cell-based, human. The protocol: HeLa Kyoto cell line was described previously ([Lansbergen et al., 2006]; [Mimori-Kiyosue et al., 2005]). HEK293T cells were purchased from ATCC; culture and transfection of DNA and siRNA into these cell lines was performed as previously described ([van der Vaart et al., 2013]). HaCaT cells were purchased at Cell Line Service (Eppelheim, Germany) and cultured according to manufacturer’s instructions. The cell lines were routinely checked for mycoplasma contamination using LT07-518 Mycoalert assay (Lonza, Switzerland).The identity of the cell lines was monitored by immunofluorescence-staining-based analysis with multiple markers. Blebbistatin was purchased from Enzo Life Sciences and used at 50 μM. Serum starvation in HeLa cells was done for 48 hr and focal adhesion assembly was stimulated by incubation with fetal calf serum-containing medium with or without blebbistatin for 2 hr. ROCK1 inhibitor Y-27632 was purchased at Sigma-Aldrich and used at 1 or 10 μM. Double stable HeLa cell line expressing GFP-KANK1 and TagRFP-paxillin was made by viral infection. We used a pLVIN-TagRFP-paxillin-based lentivirus and a pQC-GFP-KANK1-based retrovirus packaged in HEK293T cells using respectively Lenti-X HTX packaging and pCL-Ampho vectors. Antibiotic selection was applied to cells 48 hr after infection using 500 μg/ml G418 (Geneticin, Life Technologies) and 1 μg/ml puromycin (InvivoGen). […]

T1 sequence (P26039 1357-1659 S1641E): as the sequence (P26039 1357-1659) above, with S285E counted along it

As to `CC[C@H](C)[C@H](NC(=O)[C@H](CC(=O)O)NC(=O)[C@H](CC(=O)O)NC(=O)[C@@H](NC(=O)[C@H](Cc1ccc(O)cc1)NC(=O)[C@H](CCCCN)NC(=O)[C@@H](NC(=O)[C@H](Cc1ccccc1)NC(=O)[C@H](CC(=O)O)NC(=O)[C@H](CC(C)C)NC(=O)[C@H](CC(=O)O)NC(=O)[C@H](CC(C)C)NC(=O)[C@H](CCC(N)=O)NC(=O)[C@H](Cc1ccccc1)NC(=O)CNC(=O)[C@H](Cc1ccc(O)cc1)NC(=O)[C@@H]1CCCN1C(=O)[C@@H](NC(=O)[C@H](CCC(=O)O)NC(=O)[C@@H](NC(=O)[C@H](Cc1ccccc1)NC(=O)[C@H](Cc1ccc(O)cc1)NC(=O)[C@@H]1CCCN1)C(C)C)[C@@H](C)O)C(C)C)C(C)C)C(=O)N[C@@H](CCC(N)=O)C(=O)N[C@@H](CCCCN)C(=O)NCC(=O)N[C@@H](CC(N)=O)C(=O)N[C@H](C(=O)N[C@H](C(=O)N[C@@H](CCCCN)C(=O)N[C@@H](CCCCN)C(=O)N[C@@H](CS)C(=O)O)[C@@H](C)CC)[C@@H](C)O` [KANK1(30–60)C], the dissociation constant (Kd) on R7-R8 S1641E turned out to be 2100 ± 400 nM; on Talin1 R7-R8 (1357–1659) it was 800 ± 100 nM.

“KN domain: GFP-tagged KN domain of KANK1 (residues 30–68)”: the “effect of 4A mutation on interaction with talin1 (in words)” value in the assay on GFP-talin1 is “An even stronger reduction was observed”. In addition, the “localization relative to FAs, endogenous KANK1/2 present (in words)” value in assay [1] is “strongly and specifically accumulated within FAs”.

As a reminder, the Kd is the concentration at which binding is half-saturated.
